One experiment has as its target T1, eIF4E (Homo sapiens, UniProt P06730).
T1 construct: HNAVIpeptTEVeIF4E 32-217(Biotinylated)
Briefly: Binding affinities to eIF4E using surface plasmon resonance (SPR).

Experiment [1] has as its system HeLa Lysate. As to the kind of experiment: Cell free translation assay of hEPO mRNAs carrying different caps. The experiment is classed as biochemical. Particulars: hEPO levels after 3 hours; mRNA carrying the cap; modRNA with 5-methoxy uridine.
A further experiment deals with CD-1 mice. Briefly: In vivo expression assay of hEPO mRNA in MC3-based LNP. The following applies: i.v. bolus 0.05 mg/kg, 6 h after injection, mRNA carrying the cap, 5-methoxy uridine. Here is the method:
mRNAs encoding hEPO are synthesized according to the method described in Example 2 above, co-transcriptionally incorporating cap analogs of the disclosure. […] A MC3-based lipid nanoparticle (LNP) formulation of the synthesized mRNA is produced, and is intravenously administered to CD-1 mice (n=3) at a bolus dose of 0.05 mg/kg. The level of hEPO was tested at 6 h, 24 h, or 48 h after injection.

The subject of experiment [2] is human primary hepatocytes. As to the kind of experiment: Cell-based expression assay in human primary hepatocytes. The following applies: normalized expression level of mRNA carrying the cap, 5-methoxy uridine; Compound 7 mRNA Cap0-like, others Cap1-like.
Experiment [3] has as its system HeLa Lysate. As to the kind of experiment: Cap competition assay in kinetic cell free in vitro translation (free cap analogs vs Cap1-tipped eGFP modRNA). The following applies: free cap analog 0-100 uM; modRNA with 1-methyl-pseudouridine and 5-methyl cytidine; fluorescence plateau. Type of experiment: biochemical. On the procedure:
The in vitro translation assay was conducted with the HeLa 1-step coupled IVT kit (ThermoFisher Scientific, Waltham, Mass.) according to the manufacturer's instructions to assess performance of new cap analogs as free compounds or as an integral part of capped mRNA. Cap analogs with affinity to eIF4E protein may reduce protein synthesis rate in cell-free translation. Further, RNAs containing such cap analogs (“Cap-modRNA”) show different potency of protein synthesis in cell-free translation.
The modified RNAs (“modRNAs”) of eGFP and mCitrine-degron, harboring chemical modifications on either the CAP structures, selected ribose units and/or the bases, were diluted in sterile nuclease-free water to a final amount of 500 ng in 5 uL. […] The in vitro translation reaction was done in a standard 96-well round bottom plate (Corning, Corning, N.Y.), covered with an self-adhesive fluorescence-compatible seal (BioRad, Hercules, Calif.) at 30° C. inside the plate reader Cytation 3 (BioTek, Winooski, Vt.).
The fluorescent signal per reaction increased over time and is considered proportional to the occurring protein synthesis. Each cell-free translation reaction was monitored for 120-180 min with the following settings: eGFP protein—ex. […] The height of the reading head was set to 1 mm above the plate and a reading speed of one per sample every 17 seconds. […]

Where [4] appears, read: residence time as listed in Table 5.

Each structure is given as a SMILES string.

T1 sequence (P06730 32-217): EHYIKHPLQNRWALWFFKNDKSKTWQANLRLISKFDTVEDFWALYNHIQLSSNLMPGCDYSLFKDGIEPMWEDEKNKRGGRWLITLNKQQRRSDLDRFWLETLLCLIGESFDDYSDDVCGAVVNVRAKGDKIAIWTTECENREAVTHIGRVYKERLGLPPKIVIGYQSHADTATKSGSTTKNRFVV
Protocol for eIF4E: General Outline of the Assay Procedure
A sensor chip SA (GE Healthcare) is docked into a Biacore 3000 instrument.
Compound concentration series are injected over the immobilized protein serially in increasing concentration. Interaction models are fitted globally to the experimental traces, enabling determination of Kd or KD (binding affinity; unit: M) and possibly kon (on-rate, calculated from the association phase; unit: M^−1s^−1) and koff (off-rate, calculated from the dissociation phase; unit: s^−1).
Preparation of Sensor Chip
A sensor chip (SAD5001 or SA) was docked into a Biacore 3000 instrument, washed with 50 mM NaOH, 1M NaCl. Protein eIF4E was diluted in running buffer (50 mM HEPES, 150 mM KCl, 10 mM MgCl2, 2 mM TCEP) to ˜1 μM. The diluted protein solution was injected for 300-600 seconds. Typical capture levels were 5000-6000 RU.
Test compounds were solubilized in ddH2O or DMSO to 10 mM. 100 μM stocks were prepared by 100-fold dilution in running buffer (50 mM HEPES, 150 mM KCl, 10 mM MgCl2). Assay was run with or without 1% DMSO.
Data were analyzed in GeneData. Curve fit was accepted or rejected by looking at the resulting sensorgrams and steady state fits.
Assay has been validated using running buffer with and without DMSO.

The Kd is the concentration at which binding is half-saturated. A low value points to tighter binding. In the case of `C[n+]1cn([C@@H]2O[C@H](COP(=O)([O-])OCCN(CCOP(=O)([O-])OC[C@H]3O[C@@H](n4c[n+](C)c5c(=O)[nH]c(N)nc54)[C@H](O)[C@@H]3O)C(=O)OC(C)(C)C)[C@@H](O)[C@H]2O)c2nc(N)[nH]c(=O)c21` [Compound 25], the Kd at eIF4E (SPR, Biacore 3000, captured biotinylated eIF4E, Table 3) was 300 µM.

With `CO[C@@H]1[C@H](O)[C@@H](COP(=O)(O)OP(=O)(O)OP(=O)(O)OC[C@H]2O[C@@H]([n+]3cn(C)c4c(=O)[nH]c(N)nc43)[C@H](O)[C@@H]2O)O[C@H]1n1cnc2c(=O)[nH]c(N)nc21` [Cap1, m7GpppG(2′-Om)], at eIF4E (setting [4]), the τ stood at 1.3 s. Besides, the “CFT (norm to conc. & capping & cap1)” value with HeLa Lysate [1] was determined as 1.00. Besides, in the experiment with CD-1 mice, the “in vivo hEPO normalized to capping and Cap1” value was determined as 1.00. Further, in experiment [2], the “h-primHeps norm to Capping and Cap1” value came to 1.00.

Usually IC50 stands for the concentration that gives 50% inhibition. Read a high IC50 as lower potency. In the experiment on HeLa Lysate [3], `Cn1c[n+]([C@@H]2O[C@H](COP(=O)(O)OP(=O)([O-])OP(=O)(O)OC[C@H]3O[C@@H](n4cnc5c(=O)[nH]c(N)nc54)[C@H](O)[C@@H]3O)[C@@H](O)[C@H]2O)c2nc(N)[nH]c(=O)c21` [Cap0 (i.e., m7GpppG), m7GpppG] yielded an IC50 of 36 µM. The τ on eIF4E (residence time, inverse of koff, Table 3) stood at 1.25 s.

Regarding `CO[C@H]1[C@@H](O)[C@H](n2c[n+](C)c3c(=O)[nH]c(N)nc32)O[C@@H]1COP(=O)(O)OP(=O)(O)OP(=O)(O)OC[C@H]1O[C@@H](n2cnc3c(=O)[nH]c(N)nc32)[C@H](O)[C@@H]1O` [ARCA], the τ at eIF4E (setting [4]) was 0.6 s. For the same molecule, in the experiment on HeLa Lysate [1], the “CFT (norm to conc. & capping & cap1)” value is on record as 1.93. Besides, the “in vivo hEPO normalized to capping and Cap1” value in the experiment on CD-1 mice worked out at 0.70. Further, the “h-primHeps norm to Capping and Cap1” value in experiment [2] stood at 1.52.

The record behind these values is patent US10428106B2, “Phosphate replacement mRNA cap analogs” (ModernaTX, Inc., priority 2015, dated 2019).
